# In US6534496B1, “Thermogenic composition and benzazepine thermogenics” (Takeda Chemical Industries, Inc., priority 1997, dated 2003):
# Where a name gives a salt, the structure may show the parent alone.
row,SMILES,melting point
1,O=C(CCC1CCN(Cc2cc(C(F)(F)F)cc(C(F)(F)F)c2)CC1)c1ccc2c(c1)CN(Cc1ccccc1)CCO2 (as salt: hydrochloride),234 to 236 °C
2,CNC(=O)Nc1ccccc1CN1CCC(CCCC(=O)c2ccc3c(c2)CCN(Cc2ccccc2C)CC3)CC1 (as salt: hydrochloride),176 to 189 °C (dec.)
3,"O=C(CCCC1CCNCC1)c1ccc2c(c1)CCN(Cc1ccccc1)CC2 (as salt: hydrochloride) [Example 26, 1-[3-(Phenylmethyl)-2,3,4,5-tetrahydro-1H-3-benzazepin-7-yl]-4-(4-piperidinyl)-1-butanone Dihydrochloride]",201 to 203 °C
4,"O=C(CCC1CCN(Cc2ccc(Cl)cc2)CC1)c1ccc2c(c1)CCN(Cc1ccc(F)cc1)CC2 (as salt: hydrochloride) [Example 41, 3-[1-[(4-Chlorophenyl)methyl]-4-piperidinyl]-1-[3-[(4-fluorophenyl)methyl]-2,3,4,5-tetrahydro-1H-3-benzazepin-7-yl]-1-propanone Dihydrochloride]",219 to 222 °C (dec.)
5,"CN1CCC(CCC(=O)c2ccc3c(c2)CCN(Cc2ccc(F)cc2)CC3)CC1 (as salt: hydrochloride) [Example 42, 1-[3-[(4-Fluorophenyl)methyl]-2,3,4,5-tetrahydro-1H-3-benzazepin-7-yl]-3-(1-methyl-4-piperidinyl)-1-propanone Dihydrochloride]",213 to 216 °C (dec.)
6,"O=C(CCC1CCN(Cc2ccc(-c3ccccc3)cc2)CC1)c1ccc2c(c1)CCN(Cc1ccc(F)cc1)CC2 (as salt: hydrochloride) [Example 49, 1-[3-[(4-Fluorophenyl)methyl]-2,3,4,5-tetrahydro-1H-3-benzazepin-7-yl]-3-[1-[(4-phenylphenyl)methyl]-4-piperidinyl]-1-propanone Dihydrochloride]",225 to 228 °C (dec.)
7,"O=C(CCC1CCNCC1)c1ccc2c(c1)CN(Cc1ccc(F)cc1)CCO2 (as salt: hydrochloride) [Example 78, 1-[4-[(4-Fluorophenyl)methyl]-2,3,4,5-tetrahydro-1,4-benzoxazepin-7-yl]-3-(4-piperidinyl)-1-propanone Dihydrochloride]",173 to 174 °C
8,"COc1ccc(CN2CCc3ccc(C(=O)CCC4CCN(Cc5ccc(C(C)(C)C)cc5)CC4)cc3CC2)cc1 (as salt: hydrochloride) [Example 93, 1-[3-[(4-methbyphenyl)methyl]-2,3,4,5-tetrahydro-1H-3-benzazepin-7-yl]3-[1-[[4-(tert-butyl)phenyl]methyl]-4-piperidinyl]-1-propanone Dihydrochloride]",241 to 244 °C (dec.)
9,"COc1ccc(CN2CCc3ccc(C(=O)CCC4CCN(Cc5ccc(Cl)c(Cl)c5)CC4)cc3CC2)cc1 (as salt: hydrochloride) [Example 96, 3-[1-[(3,4-Dichlorophenyl)methyl]-4-piperidinyl]-1-[3-[(4-methoxyphenyl)methyl]-2,3,34,5-tetrahydro-1H-3-benzazepin-7-yl]-1-propanone Dihydrochloride]",220 to 223 °C (dec.)
10,"Cc1ccccc1CN1CCc2ccc(C(=O)CCCC3CCN(Cc4ccccc4C)CC3)cc2CC1 (as salt: hydrochloride) [Example 127, 4-[1-[(2-Methylphenyl)methyl]-4-piperidinyl]-1-[3-[(2-methylphenyl)methyl]-2,3,4,5-tetrahydro-1H-3-benzazepin-7-yl]-1-butanone Dihydrochloride]",183 to 186 °C
11,"Cc1ccccc1CN1CCc2ccc(C(=O)CCCC3CCN(Cc4ccccc4)CC3)cc2CC1 (as salt: hydrochloride) [Example 129, 1-[3-[(2-Methylphenyl)methyl]-2,3,4,5-tetrahydro-1H-3-benzazepin-7-yl]-4-[1-(phenylmethyl)-4-piperidinyl]-1-butanone Dihydrochloride]",191 to 194 °C
12,Cc1ccccc1CN1CCc2ccc(C(=O)CCCC3CCN(Cc4cccc(Cl)c4)CC3)cc2CC1 (as salt: hydrochloride) [Example 130],180 to 183 °C
13,"COC(=O)c1cccc(CN2CCC(CCCC(=O)c3ccc4c(c3)CCN(Cc3ccccc3)CC4)CC2)c1 (as salt: hydrochloride) [Example 152, Methyl 3-[[4-[4-[3-(phenylmethyl)-2,3,4,5-tetrahydro,-1H-3-benzazepin-7-yl]-4-oxobutyl]-1-piperidinyl]methyl]benzoate Dihydrochloride]",194 to 200 °C

# Other lines, results leading:
row,melting point,SMILES
1,232 to 234 °C,Cc1ccccc1CN1CCC(CCC(=O)c2ccc3c(c2)CN(Cc2ccccc2)CCO3)CC1 (as salt: hydrochloride)
2,212 to 214 °C,"Cc1cccc(CN2CCC(CCC(=O)c3ccc4c(c3)CN(Cc3ccccc3)CCO4)CC2)c1 (as salt: hydrochloride) [Example 4, 3-[1-[(3-Methylphenyl)methyl]-4-piperidinyl]-1-[4-(phenylmethyl)-2,3,4,5-tetrahydro-1,4-benzoxazepin-7-yl]-1-propanone Dihydrochloride]"
3,212 to 214 °C,"O=C(CCC1CCN(Cc2ccc(F)cc2)CC1)c1ccc2c(c1)CN(Cc1ccccc1)CCO2 (as salt: hydrochloride) [Example 8, 3-[1-[(4-Fluorophenyl)methyl]-4-piperidinyl]-1-[4-(phenylmethyl)-2,3,4 5-tetrahydro-1,4-benzoxazepin-7-yl]-1-propanone Dihydrochloride]"
4,223 to 225 °C,"O=C(CCC1CCN(Cc2ccccc2C(F)(F)F)CC1)c1ccc2c(c1)CN(Cc1ccccc1)CCO2 (as salt: hydrochloride) [Example 12, 1-[4-(Phenylmethyl)-2,3,4,5-tetrahydro-1,4-benzoxazepin-7-yl]-3-[1-[(2-trifluoromethylphenyl)methyl]-4-piperidinyl]-1-propanone Dihydrochloride]"
5,228 to 231 °C (dec.),"CCOC(=O)C(C)(C)c1ccc(CN2CCC(CCC(=O)c3ccc4c(c3)CCN(Cc3ccc(F)cc3)CC4)CC2)cc1 (as salt: hydrochloride) [Example 43, Ethyl 2-methyl-2-[4-[[4-[3-[3-[(4-fluorophenyl)methyl]-2,3,4,5-tetrahydro-1H-3-benzazepin-7-yl]-3-oxopropyl]-1-piperidinyl]methyl]phenyl]propionate Dihydrochloride]"
6,206 to 208 °C,"CCOC(=O)COc1ccc(CN2CCC(CCC(=O)c3ccc4c(c3)CCN(Cc3ccc(F)cc3)CC4)CC2)cc1 (as salt: hydrochloride) [Example 45, Ethyl 2-[4-[[4-[3-[3-[(4-fluorophenyl)methyl]-2,3,4,5-tetrahydro-1H-3-benzazepin-7-yl]-3-oxopropyl]-1-piperidinyl]methyl]phenoxy]ethanoate Dihydrochloride]"
7,223 to 225 °C,"Cc1cccc(CN2CCC(CCC(=O)c3ccc4c(c3)CN(Cc3ccc(F)cc3)CCO4)CC2)c1 (as salt: hydrochloride) [Example 79, 1-[4-[(4-Fluorophenyl)methyl]-2,3,4,5-tetrahydro-1,4-benzoxazepin-7-yl]-3-[1-[(3-methylphenyl)methyl]-4-piperidinyl]-1-propanone Dihydrochloride]"
8,224 to 225 °C,"O=C(CCC1CCN(Cc2cccc(Cl)c2)CC1)c1ccc2c(c1)CN(Cc1ccc(F)cc1)CCO2 (as salt: hydrochloride) [Example 80, 3-[1-[(3-Chlorophenyl)methyl]-4-piperidiny]-1-[4-[(4-fluorophenyl)methyl]-2,3,4,5-tetrahydro-1,4-benzoxazepin-7-yl]-1-propanone Dihydrochloride]"
9,228 to 231 °C,"O=C(CCC1CCN(Cc2cccc(F)c2)CC1)c1ccc2c(c1)CN(Cc1ccc(F)cc1)CCO2 (as salt: hydrochloride) [Example 81, 3-[1-[(3-Fluorophenyl)methyl]-4-piperidiny]-1-[4-[(4-fluorophenyl)methyl]-2,3,4,5-tetrahydro-1,4-benzoxazepin-7-yl]-1-propanone Dihydrochloride]"
10,216 to 219 °C,"Cc1ccccc1CN1CCC(CCC(=O)c2ccc3c(c2)CN(Cc2ccc(F)cc2)CCO3)CC1 (as salt: hydrochloride) [Example 83, 1-[4-[(4-Fluorophenyl)methyl]-2,3,4,5-tetrahydro-1,4-benzoxazepin-7-yl]-3-[1-[(2-methylphenyl)methy]-4-piperidinyl]-1-propanone Dihydrochloride]"
11,234 to 237 °C,"O=C(CCC1CCN(Cc2ccc(C(F)(F)F)cc2)CC1)c1ccc2c(c1)CN(Cc1ccc(F)cc1)CCO2 (as salt: hydrochloride) [Example 88, 1-[4-[(4-Fluorophenyl)methyl]-2,3,4,5-tetrahydro-1,4-benzoxazepin-7-yl]-3-[1-[[4-(trifluoromethyl)phenyl]methyl]-4-piperidinyl]-1-propanone Dihydrochloride]"
12,187 to 189 °C,"O=C(CCC1CCN(Cc2cccc(-c3ccccc3)c2)CC1)c1ccc2c(c1)CN(Cc1ccc(F)cc1)CCO2 (as salt: hydrochloride) [Example 99, 1-[4-[(4-Fluorophenyl)methyl]-2,3,4,5-tetrahydro-1,4-benzoxazepin-7-yl]-3-[1-[(3-phenylphenyl)methyl]-4-piperidinyl]-1-propanone Ddihydrochloride]"
13,200 to 203 °C,"CCOC(=O)COc1cccc(CN2CCC(CCC(=O)c3ccc4c(c3)CN(Cc3ccc(F)cc3)CCO4)CC2)c1 (as salt: hydrochloride) [Example 103, Ethyl 2-[3-[[4-[3-[4-[(4-fluorophenyl)methyl]-2,3,4,5-tetrahydro-1,4-benzoxazepin-7-yl]-3-oxopropyl]-1-piperidinyl]methyl]phenoxy]ethanoate Dihydrochloride]"
14,240 to 243 °C,"CC(C)(C)c1ccc(CN2CCC(CCC(=O)c3ccc4c(c3)CN(Cc3ccc(F)cc3)CCO4)CC2)cc1 (as salt: hydrochloride) [Example 108, 1-[4-[(4-Fluorophenyl)methyl]-2,3,4,5-tetrahydro-4-benzoxazepin-7-yl]-3-[1-[[4-(tert-butyl)phenyl]methyl]-4-piperidinyl]-1-propanone Dihydrochloride]"
